{"source": "paper PMC3562592", "about": "(Journal of the American Chemical Society, 2012)", "target": "T1, FAAH (Rattus norvegicus, UniProt P97612)", "T1 sequence (P97612 1-579)": "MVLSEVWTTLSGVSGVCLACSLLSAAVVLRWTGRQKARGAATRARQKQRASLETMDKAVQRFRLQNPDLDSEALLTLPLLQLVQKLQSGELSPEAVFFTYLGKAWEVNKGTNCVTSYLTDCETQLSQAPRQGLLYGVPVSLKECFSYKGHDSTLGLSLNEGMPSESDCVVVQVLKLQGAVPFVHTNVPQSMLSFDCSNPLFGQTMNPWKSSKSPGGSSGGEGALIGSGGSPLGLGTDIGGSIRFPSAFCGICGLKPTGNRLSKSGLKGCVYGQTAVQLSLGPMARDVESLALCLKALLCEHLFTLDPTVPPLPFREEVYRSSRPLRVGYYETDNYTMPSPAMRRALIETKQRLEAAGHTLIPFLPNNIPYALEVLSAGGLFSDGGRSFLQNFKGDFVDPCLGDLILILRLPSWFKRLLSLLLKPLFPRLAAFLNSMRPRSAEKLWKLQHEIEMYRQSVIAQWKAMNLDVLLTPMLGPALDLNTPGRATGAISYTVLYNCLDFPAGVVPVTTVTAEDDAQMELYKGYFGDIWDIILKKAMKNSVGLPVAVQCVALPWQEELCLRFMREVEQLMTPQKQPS", "test": "WaterLOGSY NMR binding to FAAH", "data": [{"smiles": "CC(C(=O)O)c1ccc2c(c1)[nH]c1ccc(Cl)cc12", "note": "(racemic) [carprofen, (RS)-2-(6-chloro-9H-carbazol-2-yl)propanoic acid]", "values": [{"measurement": "binding to FAAH (WaterLOGSY signals)", "setting": "enzyme pre-incubated with URB597", "value": "did not alter such binding"}, {"measurement": "binding to FAAH (WaterLOGSY signals)", "setting": "without URB597", "value": "able to bind FAAH"}]}]}
